Drawing on patent US9956293B2, “Targeted therapeutics” (Madrigal Pharmaceuticals, Inc., priority 2014, dated 2018), this text covers IC50 for 18 molecules.

By IC50 is commonly meant the concentration that gives 50% inhibition. The low end stands for greater potency, the high end for weaker potency.

The assay relates to HER2. Briefly: HER2 degradation assay with BT-474 cell line (Example 12, FACS). In kind it is cell-based. As to conditions: Homo sapiens. From the text: HER2 Degradation Assay with BT-474 Cell Line
HER2 has emerged as a key target for anticancer drugs due to its intrinsic involvement in the phosphatidylinositol-3-kinase-Akt/protein kinase B (PI3K-Akt) and the mitogen-activated protein kinase (MAPK) pathways, both of which suppress apoptosis and promote tumor cell survival, gene transcription, angiogenesis, cellular proliferation, migration, mitosis, and differentiation. The degradation of HER2 is a measure of efficacy of anticancer therapeutics that target Hsp90. Accordingly, the SDC-TRAP molecules of the invention that comprise a binding moiety that binds Hsp90 were tested in the following HER2 degradation assay.
BT-474 cells (human breast cancer cell line ATCC HTB-20) were obtained from ATCC and seeded into 12-well tissue culture plates at 0.2×10^6/1.8 mL/well. […] Each test compound was titrated in 4-fold dilutions from 5 μM to 78 nM with DMSO and 200 μL of the titration was added to each well of the cell plate. The DMSO final concentration was 0.2%. Cells were incubated overnight at 37° C. in 5% CO2.
Media was decanted from the plate, cells were washed 1× in PBS. 400 μL trypsin (EDTA) per well was added, and the cells were incubated for 2 to 3 minutes. Cells were collected into FACS tubes containing 1 ml culture medium to neutralize the trypsin and were centrifuged for 5 minutes at 1200 rpm. Supernatant was decanted and the cells were resuspended in 5 μL FITC (anti HER2/nu)/200 μL staining buffer (1×PBS+1% FBS+0.05% Sodium Azide)/tube. Controls were […] IgG isotype control and staining buffer only. Tubes were incubated for 30 minutes in the dark at room temperature. 1 mL staining buffer was added to each tube and the tubes were centrifuged for 6 minutes at 1200 rpm. The supernatant was decanted and 300 μL staining buffer was added to each tube, which was store at 4° C. for FACS (cytometer) analysis. The cytometer readout was normalized and the potency of each compound is evaluated with IC50 calculated with XLfit™ software.

The mark [1] stands for this setting: BT-474, SDC-TRAPs of the 41st table.

With `CCNC(=O)c1nnc(-c2cc(C(C)C)c(O)cc2O)n1-c1ccc(C(=O)N(C)CC(=O)Nc2cccc3c2CN(C2CCC(=O)NC2=O)C3=O)cc1` (stereo not drawn) [SDC-TRAP-0147, 5-(2,4-dihydroxy-5-isopropylphenyl)-4-(4-((2-((2-(2,6-dioxopiperidin-3-yl)-1-oxoisoindolin-4-yl)amino)-2-oxoethyl)(methyl)carbamoyl)phenyl)-N-ethyl-4H-1,2,4-triazole-3-carboxamide], inhibition (BT-474 cells) was half-maximal at 4330 nM (IC50).

`CCNC(=O)c1nnc(-c2cc(C(C)C)c(O)cc2O)n1-c1ccc(CN2CCC(C(=O)N[C@H](C(=O)Nc3cccc4c3CN(C3CCC(=O)NC3=O)C4=O)C(C)C)CC2)cc1` (stereo partly drawn) [SDC-TRAP-0163, 1-(4-(3-(2,4-dihydroxy-5-isopropylphenyl)-5-(ethylcarbamoyl)-4H-1,2,4-triazol-4-yl)benzyl)-N-((2S)-1-((2-(2,6-dioxopiperidin-3-yl)-1-oxoisoindolin-4-yl)amino)-3-methyl-1-oxobutan-2-yl)piperidine-4-carboxamide]: half-maximal inhibition (BT-474 cells) (IC50) was put at 885 nM.

`CC(C)c1cc(-c2nnc(O)n2-c2ccc(CN3CCN(CCN(C)C(=O)Nc4cccc5c4CN(C4CCC(=O)NC4=O)C5=O)CC3)cc2)c(O)cc1O` (stereo not drawn) [SDC-TRAP-0105, 1-(2-(4-(4-(3-(2,4-dihydroxy-5-isopropylphenyl)-5-hydroxy-4H-1,2,4-triazol-4-yl)benzyl)piperazin-1-yl)ethyl)-3-(2-(2,6-dioxopiperidin-3-yl)-1-oxoisoindolin-4-yl)-1-methylurea] gave an IC50 (BT-474 cells) greater than 10000 nM.

For the molecule `CC(C)c1cc(-c2nnc(O)n2-c2ccc(CN3CCN(CC(=O)Nc4cccc5c4CN(C4CCC(=O)NC4=O)C5=O)CC3)cc2)c(O)cc1O` (stereo not drawn) [SDC-TRAP-0128, 2-(4-(4-(3-(2,4-dihydroxy-5-isopropylphenyl)-5-hydroxy-4H-1,2,4-triazol-4-yl)benzyl)piperazin-1-yl)-N-(2-(2,6-dioxopiperidin-3-yl)-1-oxoisoindolin-4-yl)acetamide], the IC50 (BT-474 cells) turned out to be 6910 nM.

As to `CCNC(=O)c1nnc(-c2cc(C(C)C)c(O)cc2O)n1-c1ccc(Oc2ccc(C(=O)N[C@@H](CC(C)C)C(=O)Nc3cccc4c3CN(C3CCC(=O)NC3=O)C4=O)cc2)cc1` (stereo partly drawn) [SDC-TRAP-0191, 5-(2,4-dihydroxy-5-isopropylphenyl)-4-(4-(4-(((2S)-1-((2-(2,6-dioxopiperidin-3-yl)-1-oxoisoindolin-4-yl)amino)-4-methyl-1-oxopentan-2-yl)carbamoyl)phenoxy)phenyl)-N-ethyl-4H-1,2,4-triazole-3-carboxamide], the IC50 (BT-474 cells) came out at 1180 nM.

`CC(C)c1cc(-c2nnc(O)n2-c2ccc(CC3CCN(C(=O)O[C@H]4CC[C@@]5(C)C(=CC[C@@H]6[C@@H]5CC[C@]5(C)C(c7cccnc7)=CC[C@@H]65)C4)CC3)cc2)c(O)cc1O` [SDC-TRAP-0153, (3S,8R,9S,10R,13S,14S)-10,13-dimethyl-17-(pyridin-3-yl)-2,3,4,7,8,9,10,11,12,13,14,15-dodecahydro-1H-cyclopenta[a]phenanthren-3-yl 4-(4-(3-(2,4-dihydroxy-5-isopropylphenyl)-5-hydroxy-4H-1,2,4-triazol-4-yl)benzyl) piperidine-1-carboxylate] came in with an IC50 (BT-474 cells) of 6340 nM.

In the case of `CC(C)c1cc(-c2nnc(O)n2-c2ccc(N3CCN(C(=O)c4ccc(CCc5c[nH]c6nc(N)[nH]c(=O)c56)cc4)CC3)cc2)c(O)cc1O` [SDC-TRAP-0082, 2-amino-5-(4-(4-(4-(3-(2,4-dihydroxy-5-isopropylphenyl)-5-hydroxy-4H-1,2,4-triazol-4-yl)phenyl)piperazine-1-carbonyl)phenethyl)-3H-pyrrolo[2,3-d]pyrimidin-4(7H)-one], inhibition under setting [1] was half-maximal at 1040 nM (IC50).

With `CCNC(=O)c1nnc(-c2cc(C(C)C)c(O)cc2O)n1-c1ccc(C(=O)N(C)CCCOC(=O)Nc2cccc3c2CN(C2CCC(=O)NC2=O)C3=O)cc1` (stereo not drawn) [SDC-TRAP-0135, 3-(4-(3-(2,4-dihydroxy-5-isopropylphenyl)-5-(ethylcarbamoyl)-4H-1,2,4-triazol-4-yl)-N-methylbenzamido)propyl(2-(2,6-dioxopiperidin-3-yl)-1-oxoisoindolin-4-yl)carbamate], it took 9670 nM to reach half-maximal inhibition (BT-474 cells) (IC50).

Molecule `CCNC(=O)c1nnc(-c2cc(C(C)C)c(O)cc2O)n1-c1ccc(CN2CCC(C(=O)N3CCC(OC(=O)Nc4cccc5c4CN(C4CCC(=O)NC4=O)C5=O)CC3)CC2)cc1` (stereo not drawn) [SDC-TRAP-0123, 1-(1-(4-(3-(2,4-Dihydroxy-5-isopropylphenyl)-5-(ethylcarbamoyl)-4H-1,2,4-triazol-4-yl)benzyl)piperidine-4-carbonyl)piperidin-4-yl (2-(2,6-dioxopiperidin-3-yl)-1-oxoisoindolin-4-yl)carbamate] returned a concentration for half-maximal inhibition (IC50) (BT-474 cells) of 657 nM.

As for `CC(C)c1cc(-c2nnc(O)n2-c2ccc3c(ccn3CCC3CCN(C(=O)Nc4cccc5c4CN(C4CCC(=O)NC4=O)C5=O)CC3)c2)c(O)cc1O` (stereo not drawn) [SDC-TRAP-0119, 4-(2-(5-(3-(2,4-dihydroxy-5-isopropylphenyl)-5-hydroxy-4H-1,2,4-triazol-4-yl)-1H-indol-1-yl)ethyl)-N-(2-(2,6-dioxopiperidin-3-yl)-1-oxoisoindolin-4-yl)piperidine-1-carboxamide], the IC50 (BT-474 cells) is greater than 10000 nM.

On to `CCNC(=O)c1nnc(-c2cc(C(C)C)c(O)cc2O)n1-c1ccc(C(=O)N[C@@H](CC(C)C)C(=O)Nc2cccc3c2CN(C2CCC(=O)NC2=O)C3=O)cc1` (stereo partly drawn) [SDC-TRAP-0189, 5-(2,4-dihydroxy-5-isopropylphenyl)-4-(4-(((2S)-1-((2-(2,6-dioxopiperidin-3-yl)-1-oxoisoindolin-4-yl)amino)-4-methyl-1-oxopentan-2-yl)carbamoyl)phenyl)-N-ethyl-4H-1,2,4-triazole-3-carboxamide], for which, under “BT-474 cells”, half-maximal inhibition (IC50) required 1090 nM.

Turning to `CC(C)c1cc(-c2nnc(O)n2-c2ccc(CC3CCN(CC4CCN(C(=O)c5ccc(CCc6c[nH]c7nc(N)[nH]c(=O)c67)cc5)CC4)CC3)cc2)c(O)cc1O` [SDC-TRAP-0103, 2-amino-5-(4-(4-((4-(4-(3-(2,4-dihydroxy-5-isopropylphenyl)-5-hydroxy-4H-1,2,4-triazol-4-yl)benzyl)piperidin-1-yl)methyl)piperidine-1-carbonyl)phenethyl)-3H-pyrrolo[2,3-d]pyrimidin-4(7H)-one], the IC50 under setting [1] stood at 245 nM.

`CC(C)c1cc(-c2nnc(O)n2-c2ccc(CN3CCN(C(=O)ONC(=O)CCCCCCC(=O)Nc4ccccc4)CC3)cc2)c(O)cc1O` [SDC-TRAP-0117, N1-((4-(4-(3-(2,4-dihydroxy-5-isopropylphenyl)-5-hydroxy-4H-1,2,4-triazol-4-yl)benzyl)piperazine-1-carbonyl)oxy)-N8-phenyloctanediamide]: inhibition (BT-474 cells) was half-maximal at 1100 nM (IC50).

In turn, `COc1cc(O)c(-c2nnc(C(=O)NC(C)C)n2-c2ccc(CN3CCC(C(=O)Nc4cccc5c4CN(C4CCC(=O)NC4=O)C5=O)CC3)cc2)cc1C(C)C` (stereo not drawn) [SDC-TRAP-0115, N-(2-(2,6-dioxopiperidin-3-yl)-1-oxoisoindolin-4-yl)-1-(4-(3-(2-hydroxy-5-isopropyl-4-methoxyphenyl)-5-(isopropylcarbamoyl)-4H-1,2,4-triazol-4-yl)benzyl)piperidine-4-carboxamide] yielded an IC50 (BT-474 cells) of 1890 nM.

Regarding `CCNC(=O)c1nnc(-c2cc(C(C)C)c(O)cc2O)n1-c1ccc(CN2CCC(C(=O)N3CCC(COC(=O)Nc4cccc5c4CN(C4CCC(=O)NC4=O)C5=O)CC3)CC2)cc1` (stereo not drawn) [SDC-TRAP-0124, (1-(1-(4-(3-(2,4-Dihydroxy-5-isopropylphenyl)-5-(ethylcarbamoyl)-4H-1,2,4-triazol-4-yl)benzyl)piperidine-4-carbonyl)piperidin-4-yl)methyl (2-(2,6-dioxopiperidin-3-yl)-1-oxoisoindolin-4-yl)carbamate], the IC50 (BT-474 cells) came out at 358 nM.

`CC(C)c1cc(-c2nnc(O)n2-c2ccc3c(c2)CN(C(=O)c2ccc(CCc4c[nH]c5nc(N)[nH]c(=O)c45)cc2)C3)c(O)cc1O` [SDC-TRAP-0093, 2-amino-5-(4-(5-(3-(2,4-dihydroxy-5-isopropylphenyl)-5-hydroxy-4H-1,2,4-triazol-4-yl)isoindoline-2-carbonyl)phenethyl)-3H-pyrrolo[2,3-d]pyrimidin-4(7H)-one]: the IC50 under setting [1] is greater than 5000 nM.

The molecule `CCc1c2c(nc3ccc(OCCN4CCN(c5ccc(-n6c(O)nnc6-c6cc(C(C)C)c(O)cc6O)cc5)CC4)cc13)-c1cc3c(c(=O)n1C2)COC(=O)C3(O)CC` (stereo not drawn) [SDC-TRAP-0057, 9-(2-(4-(4-(3-(2,4-dihydroxy-5-isopropylphenyl)-5-hydroxy-4H-1,2,4-triazol-4-yl)phenyl)piperazin-1-yl)ethoxy)-4,11-diethyl-4-hydroxy-1H-pyrano[3′,4′:6,7]indolizino[1,2-b]quinoline-3,14(4H,12H)-dione] gave an IC50 (BT-474, SDC-TRAPs of the 43rd table) of 449 nM.

Take `CC(C)c1cc(-c2nnc(O)n2-c2ccc(CN3CCN(C(=O)c4ccc(COC(=O)Nc5cccc6c5CN(C5CCC(=O)NC5=O)C6=O)cc4)CC3)c(F)c2)c(O)cc1O` (stereo not drawn) [SDC-TRAP-0157, 4-(4-(4-(3-(2,4-dihydroxy-5-isopropylphenyl)-5-hydroxy-4H-1,2,4-triazol-4-yl)-2-fluorobenzyl)piperazine-1-carbonyl)benzyl (2-(2,6-dioxopiperidin-3-yl)-1-oxoisoindolin-4-yl)carbamate]: under “BT-474 cells”, the IC50 stood at 696 nM.
